{"source": "patent US20100298141A1", "about": "“SUBSTITUTED PYRIDINE N-OXIDE HERBICIDES” (E. I. DU PONT DE NEMOURS AND COMPANY, priority 2007, published 2010)", "conditions_in_all_cases": "scale 0 to 100", "key": {"broadleaf signalgrass": {"test_system": "broadleaf signalgrass", "assay": "Test G preemergence test", "assay_type": "in vivo, Brachiaria platyphylla"}, "millet": {"test_system": "millet", "assay": "Test G preemergence test", "assay_type": "in vivo, Panicum miliaceum"}, "littleseed canarygrass": {"test_system": "littleseed canarygrass", "assay": "Test D preemergence test", "assay_type": "in vivo, Phalaris minor", "excerpt": "(§1) Seeds of plant species selected from annual bluegrass (Poa annua), blackgrass (Alopecurus myosuroides), downy bromegrass (Bromus tectorum), field violet (Viola arvensis), green foxtail (Setaria viridis), Italian ryegrass (Lolium multiflorum), littleseed canarygrass (Phalaris minor), spring wheat (Triticum aestivum), wild oat (Avena fatua), […]), winter barley (Hordeum vulgare), and winter wheat (Triticum aestivum) were planted and treated preemergence with test chemicals formulated in a non-phytotoxic solvent mixture which included a surfactant. […] A dash (-) response means no test result."}, "winter wheat": {"test_system": "winter wheat", "assay": "Test D preemergence test", "assay_type": "in vivo, Triticum aestivum", "excerpt": "as §1"}, "spring wheat": {"test_system": "spring wheat", "assay": "Test D preemergence test", "assay_type": "in vivo, Triticum aestivum", "excerpt": "as §1"}, "corn": {"test_system": "corn", "assay": "Test G preemergence test", "assay_type": "in vivo, Zea mays"}, "field violet": {"test_system": "field violet", "assay": "Test D preemergence test", "assay_type": "in vivo, Viola arvensis", "excerpt": "as §1"}, "green foxtail": {"test_system": "green foxtail", "assay": "Test D preemergence test", "assay_type": "in vivo, Setaria viridis", "excerpt": "as §1"}, "sorghum": {"test_system": "sorghum", "assay": "Test G preemergence test", "assay_type": "in vivo, Sorghum vulgare"}, "millet foxtail": {"test_system": "millet foxtail", "assay": "Test G preemergence test", "assay_type": "in vivo, Setaria italica"}, "Italian ryegrass": {"test_system": "Italian ryegrass", "assay": "Test D preemergence test", "assay_type": "in vivo, Lolium multiflorum", "excerpt": "as §1"}, "downy bromegrass": {"test_system": "downy bromegrass", "assay": "Test D preemergence test", "assay_type": "in vivo, Bromus tectorum", "excerpt": "as §1"}, "wild oat": {"test_system": "wild oat", "assay": "Test D preemergence test", "assay_type": "in vivo, Avena fatua", "excerpt": "as §1"}, "cotton": {"test_system": "cotton", "assay": "Test G preemergence test", "assay_type": "in vivo, Gossypium hirsutum"}, "woolly cupgrass": {"test_system": "woolly cupgrass", "assay": "Test G preemergence test", "assay_type": "in vivo, Eriochloa villosa"}, "annual bluegrass": {"test_system": "annual bluegrass", "assay": "Test D preemergence test", "assay_type": "in vivo, Poa annua", "excerpt": "as §1"}, "yellow foxtail": {"test_system": "yellow foxtail", "assay": "Test G preemergence test", "assay_type": "in vivo, Pennisetum glaucum"}, "itchgrass": {"test_system": "itchgrass", "assay": "Test G preemergence test", "assay_type": "in vivo, Rottboellia cochinchinensis"}, "tall waterhemp": {"test_system": "tall waterhemp", "assay": "Test G preemergence test", "assay_type": "in vivo, Amaranthus tuberculatos"}, "blackgrass": {"test_system": "blackgrass", "assay": "Test D preemergence test", "assay_type": "in vivo, Alopecurus myosuroides", "excerpt": "as §1"}, "eastern black nightshade": {"test_system": "eastern black nightshade", "assay": "Test G preemergence test", "assay_type": "in vivo, Solanum ptycanthum"}, "goosegrass": {"test_system": "goosegrass", "assay": "Test G preemergence test", "assay_type": "in vivo, Eleusine indica"}, "barnyardgrass": {"test_system": "barnyardgrass", "assay": "Test G preemergence test", "assay_type": "in vivo, Echinochloa crus-galli"}}}
{"smiles": "Cc1cc[n+]([O-])c(S(=O)(=O)C(C)c2c(C(F)(F)F)nn(C)c2Cl)c1", "note": "(racemic) [Compound 14]", "values": [{"measurement": "Plant response rating, Signalgrass", "setting": "broadleaf signalgrass; 31 g ai/ha", "value": 0}, {"measurement": "Plant response rating, Signalgrass", "setting": "broadleaf signalgrass; 62 g ai/ha", "value": 15}, {"measurement": "Plant response rating, Signalgrass", "setting": "broadleaf signalgrass; 125 g ai/ha", "value": 20}, {"measurement": "Plant response rating, Signalgrass", "setting": "broadleaf signalgrass; 250 g ai/ha", "value": 85}, {"measurement": "Plant response rating, Millet", "setting": "millet; 31 g ai/ha", "value": 0}, {"measurement": "Plant response rating, Millet", "setting": "millet; 62 g ai/ha", "value": 15}, {"measurement": "Plant response rating, Millet", "setting": "millet; 125 g ai/ha", "value": 20}, {"measurement": "Plant response rating, Millet", "setting": "millet; 250 g ai/ha", "value": 75}, {"measurement": "Plant response rating, Canarygrass", "setting": "littleseed canarygrass; 31 g ai/ha", "value": 0}, {"measurement": "Plant response rating, Canarygrass", "setting": "littleseed canarygrass; 62 g ai/ha", "value": 0}, {"measurement": "Plant response rating, Canarygrass", "setting": "littleseed canarygrass; 125 g ai/ha", "value": 15}, {"measurement": "Plant response rating, Canarygrass", "setting": "littleseed canarygrass; 250 g ai/ha", "value": 20}, {"measurement": "Plant response rating, Wheat, Winter", "setting": "winter wheat; 31 g ai/ha", "value": 0}, {"measurement": "Plant response rating, Wheat, Winter", "setting": "winter wheat; 62 g ai/ha", "value": 0}, {"measurement": "Plant response rating, Wheat, Winter", "setting": "winter wheat; 125 g ai/ha", "value": 20}, {"measurement": "Plant response rating, Wheat, Winter", "setting": "winter wheat; 250 g ai/ha", "value": 35}, {"measurement": "Plant response rating, Wheat, Spring", "setting": "spring wheat; 31 g ai/ha", "value": 0}, {"measurement": "Plant response rating, Wheat, Spring", "setting": "spring wheat; 62 g ai/ha", "value": 0}, {"measurement": "Plant response rating, Wheat, Spring", "setting": "spring wheat; 125 g ai/ha", "value": 15}, {"measurement": "Plant response rating, Wheat, Spring", "setting": "spring wheat; 250 g ai/ha", "value": 20}, {"measurement": "Plant response rating, Corn", "setting": "corn; 31 g ai/ha", "value": 0}, {"measurement": "Plant response rating, Corn", "setting": "corn; 62 g ai/ha", "value": 0}, {"measurement": "Plant response rating, Corn", "setting": "corn; 125 g ai/ha", "value": 0}, {"measurement": "Plant response rating, Corn", "setting": "corn; 250 g ai/ha", "value": 35}, {"measurement": "Plant response rating, Field Violet", "setting": "field violet; 31 g ai/ha", "value": 0}, {"measurement": "Plant response rating, Field Violet", "setting": "field violet; 62 g ai/ha", "value": 0}, {"measurement": "Plant response rating, Field Violet", "setting": "field violet; 125 g ai/ha", "value": 0}, {"measurement": "Plant response rating, Field Violet", "setting": "field violet; 250 g ai/ha", "value": 45}, {"measurement": "Plant response rating, Foxtail, Green", "setting": "green foxtail; 31 g ai/ha", "value": 0}, {"measurement": "Plant response rating, Foxtail, Green", "setting": "green foxtail; 62 g ai/ha", "value": 20}, {"measurement": "Plant response rating, Foxtail, Green", "setting": "green foxtail; 125 g ai/ha", "value": 65}, {"measurement": "Plant response rating, Foxtail, Green", "setting": "green foxtail; 250 g ai/ha", "value": 80}, {"measurement": "Plant response rating, Sorghum", "setting": "sorghum; 31 g ai/ha", "value": 0}, {"measurement": "Plant response rating, Sorghum", "setting": "sorghum; 62 g ai/ha", "value": 0}, {"measurement": "Plant response rating, Sorghum", "setting": "sorghum; 125 g ai/ha", "value": 20}, {"measurement": "Plant response rating, Sorghum", "setting": "sorghum; 250 g ai/ha", "value": 65}, {"measurement": "Plant response rating, Foxtail, Millet", "setting": "millet foxtail; 31 g ai/ha", "value": 0}, {"measurement": "Plant response rating, Foxtail, Millet", "setting": "millet foxtail; 62 g ai/ha", "value": 20}, {"measurement": "Plant response rating, Foxtail, Millet", "setting": "millet foxtail; 125 g ai/ha", "value": 70}, {"measurement": "Plant response rating, Foxtail, Millet", "setting": "millet foxtail; 250 g ai/ha", "value": 100}, {"measurement": "Plant response rating, Ryegrass, Italian", "setting": "Italian ryegrass; 31 g ai/ha", "value": 0}, {"measurement": "Plant response rating, Ryegrass, Italian", "setting": "Italian ryegrass; 62 g ai/ha", "value": 0}, {"measurement": "Plant response rating, Ryegrass, Italian", "setting": "Italian ryegrass; 125 g ai/ha", "value": 0}, {"measurement": "Plant response rating, Ryegrass, Italian", "setting": "Italian ryegrass; 250 g ai/ha", "value": 100}, {"measurement": "Plant response rating, Bromegrass, Downy", "setting": "downy bromegrass; 31 g ai/ha", "value": 0}, {"measurement": "Plant response rating, Bromegrass, Downy", "setting": "downy bromegrass; 62 g ai/ha", "value": 0}, {"measurement": "Plant response rating, Bromegrass, Downy", "setting": "downy bromegrass; 125 g ai/ha", "value": 60}, {"measurement": "Plant response rating, Bromegrass, Downy", "setting": "downy bromegrass; 250 g ai/ha", "value": 60}, {"measurement": "Plant response rating, Oat, Wild", "setting": "wild oat; 31 g ai/ha", "value": 0}, {"measurement": "Plant response rating, Oat, Wild", "setting": "wild oat; 62 g ai/ha", "value": 0}, {"measurement": "Plant response rating, Oat, Wild", "setting": "wild oat; 125 g ai/ha", "value": 0}, {"measurement": "Plant response rating, Oat, Wild", "setting": "wild oat; 250 g ai/ha", "value": 20}, {"measurement": "Plant response rating, Cotton", "setting": "cotton; 31 g ai/ha", "value": 0}, {"measurement": "Plant response rating, Cotton", "setting": "cotton; 62 g ai/ha", "value": 0}, {"measurement": "Plant response rating, Cotton", "setting": "cotton; 125 g ai/ha", "value": 0}, {"measurement": "Plant response rating, Cotton", "setting": "cotton; 250 g ai/ha", "value": 0}, {"measurement": "Plant response rating, Cupgrass, Woolly", "setting": "woolly cupgrass; 31 g ai/ha", "value": 0}, {"measurement": "Plant response rating, Cupgrass, Woolly", "setting": "woolly cupgrass; 62 g ai/ha", "value": 0}, {"measurement": "Plant response rating, Cupgrass, Woolly", "setting": "woolly cupgrass; 125 g ai/ha", "value": 70}, {"measurement": "Plant response rating, Cupgrass, Woolly", "setting": "woolly cupgrass; 250 g ai/ha", "value": 95}, {"measurement": "Plant response rating, Bluegrass", "setting": "annual bluegrass; 31 g ai/ha", "value": 0}, {"measurement": "Plant response rating, Bluegrass", "setting": "annual bluegrass; 62 g ai/ha", "value": 0}, {"measurement": "Plant response rating, Bluegrass", "setting": "annual bluegrass; 125 g ai/ha", "value": 65}, {"measurement": "Plant response rating, Bluegrass", "setting": "annual bluegrass; 250 g ai/ha", "value": 100}, {"measurement": "Plant response rating, Foxtail, Yellow", "setting": "yellow foxtail; 31 g ai/ha", "value": 0}, {"measurement": "Plant response rating, Foxtail, Yellow", "setting": "yellow foxtail; 62 g ai/ha", "value": 0}, {"measurement": "Plant response rating, Foxtail, Yellow", "setting": "yellow foxtail; 125 g ai/ha", "value": 95}, {"measurement": "Plant response rating, Foxtail, Yellow", "setting": "yellow foxtail; 250 g ai/ha", "value": 95}, {"measurement": "Plant response rating, Itchgrass", "setting": "itchgrass; 31 g ai/ha", "value": 0}, {"measurement": "Plant response rating, Itchgrass", "setting": "itchgrass; 62 g ai/ha", "value": 0}, {"measurement": "Plant response rating, Itchgrass", "setting": "itchgrass; 125 g ai/ha", "value": 15}, {"measurement": "Plant response rating, Itchgrass", "setting": "itchgrass; 250 g ai/ha", "value": 20}, {"measurement": "Plant response rating, Waterhemp", "setting": "tall waterhemp; 31 g ai/ha", "value": 0}, {"measurement": "Plant response rating, Waterhemp", "setting": "tall waterhemp; 62 g ai/ha", "value": 0}, {"measurement": "Plant response rating, Waterhemp", "setting": "tall waterhemp; 125 g ai/ha", "value": 0}, {"measurement": "Plant response rating, Waterhemp", "setting": "tall waterhemp; 250 g ai/ha", "value": 40}, {"measurement": "Plant response rating, Blackgrass", "setting": "blackgrass; 31 g ai/ha", "value": 0}, {"measurement": "Plant response rating, Blackgrass", "setting": "blackgrass; 62 g ai/ha", "value": 40}, {"measurement": "Plant response rating, Blackgrass", "setting": "blackgrass; 125 g ai/ha", "value": 40}, {"measurement": "Plant response rating, Blackgrass", "setting": "blackgrass; 250 g ai/ha", "value": 95}, {"measurement": "Plant response rating, Nightshade", "setting": "eastern black nightshade; 31 g ai/ha", "value": 0}, {"measurement": "Plant response rating, Nightshade", "setting": "eastern black nightshade; 62 g ai/ha", "value": 0}, {"measurement": "Plant response rating, Nightshade", "setting": "eastern black nightshade; 125 g ai/ha", "value": 0}, {"measurement": "Plant response rating, Nightshade", "setting": "eastern black nightshade; 250 g ai/ha", "value": 55}, {"measurement": "Plant response rating, Goosegrass", "setting": "goosegrass; 31 g ai/ha", "value": 85}, {"measurement": "Plant response rating, Goosegrass", "setting": "goosegrass; 62 g ai/ha", "value": 95}, {"measurement": "Plant response rating, Goosegrass", "setting": "goosegrass; 125 g ai/ha", "value": 100}, {"measurement": "Plant response rating, Goosegrass", "setting": "goosegrass; 250 g ai/ha", "value": 100}, {"measurement": "Plant response rating, Barnyardgrass", "setting": "barnyardgrass; 31 g ai/ha", "value": 0}, {"measurement": "Plant response rating, Barnyardgrass", "setting": "barnyardgrass; 62 g ai/ha", "value": 45}, {"measurement": "Plant response rating, Barnyardgrass", "setting": "barnyardgrass; 125 g ai/ha", "value": 70}, {"measurement": "Plant response rating, Barnyardgrass", "setting": "barnyardgrass; 250 g ai/ha", "value": 100}]}
